# According to patent US10669289B2, “Boronic acid derivatives” (MERCK PATENT GMBH, priority 2014, dated 2020):
# Experiments:
# [1] = target: human constitutive proteasome (Beta5) (Homo sapiens (Human), UniProt P28074); test: Determination of Beta5 activity (fluorescence intensity assay, Suc-LLVY-AMC); type: biochemical
# Method in brief: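 Purified human constitutive proteasome (1.25 nM) preincubated with compounds (30 μM–15 pM) for 20 min (default) or 120 min at 25 °C in 50 mM Tris pH 7.4, 0.03% SDS, 1 mM EDTA, 1% DMSO. Suc-LLVY-AMC substrate at 40 μM, 60 min at 37 °C. Fluorescence read at ex 350/em 450 nm.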
# [2] = target: human immuno proteasome (LMP7) (Homo sapiens (Human), UniProt P28062); test: Determination of LMP7 activity (fluorescence intensity assay, Suc-LLVY-AMC); type: biochemical
# Method in brief: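 Fluorogenic Suc-LLVY-AMC cleavage (40 μM substrate, 60 min, 37° C., ex 350/em 450 nm) measured after 0.25 nM human immunoproteasome was exposed to compound at 30 μM–15 pM. Preincubation was 20 min by default or 120 min (long) at 25° C., in Tris pH 7.4 with 0.03% SDS, 1 mM EDTA and 1% DMSO.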
# [3] = LMP7 versus Beta5, incubation for 20 minutes
# [4] = LMP7 versus Beta5, long incubation (120 min)
IC50 ([1]; incubation for 20 minutes),"Selectivity LMP7 vs Beta5 [2, 3]",IC50 ([2]; incubation for 20 minutes),IC50 ([1]; long incubation (120 min)),"Selectivity LMP7 vs Beta5 [2, 4]",IC50 ([2]; long incubation (120 min)),SMILES
> 5000 nM,+++ (70 ≤ 100),50 to 500 nM,,,,"C=CC(=O)N(CC)CC(=O)N[C@@H](Cc1ccccc1)B(O)O [Compound No. 37, [(1R)-1-[[2-[ethyl(prop-2-enoyl)amino]acetyl]amino]-2-phenyl-ethyl]boronic Acid]"
> 5000 nM,++ (50 ≤ Selectivity < 70),500 to 5000 nM,,,,"C=CC(=O)N1CCC[C@H]1C(=O)N[C@@H](Cc1ccc(C)cc1C)B(O)O [Compound No. 58, [(1R)-2-(2,4-dimethylphenyl)-1-[[(2S)-1-prop-2-enoylpyrrolidine-2-carbonyl]amino]ethyl]boronic Acid]"
,,,> 5000 nM,++ (50 ≤ Selectivity < 70),500 to 5000 nM,"C=CC(=O)N1CCC[C@@H]1C(=O)N[C@@H](Cc1ccc(C)cc1C)B(O)O [Compound No. 53, [(1R)-2-(2,4-dimethylphenyl)-1-[[(2R)-1-prop-2-enoylpyrrolidine-2-carbonyl]amino]ethyl]boronic Acid]"
500 to 5000 nM,+ (Selectivity < 50),50 to 500 nM,,,,"C=CC(=O)N(CC)CC(=O)N[C@@H](Cc1ccc(Cl)cc1)B(O)O [Compound No. 25, [(1R)-2-(4-chlorophenyl)-1-[[2-[ethyl(prop-2-enoyl)amino]acetyl]-amino]ethyl]boronic Acid]"
> 5000 nM,++++ (100 ≤ Selectivity < 150),50 to 500 nM,,,,"C=CC(=O)N(CCC)CC(=O)N[C@@H](Cc1ccc(C)c(C)c1)B(O)O [Compound No. 5, [(1R)-2-(3,4-dimethylphenyl)-1-[[2-[prop-2-enoyl(propyl)amino]-acetyl]amino]ethyl]boronic Acid]"
,,,> 5000 nM,+++++ (Selectivity ≥ 150),< 50 nM,"C=CC(=O)N(CC(=O)N[C@@H](CCc1ccccc1)B(O)O)c1ccccc1F [Compound No. 101, [(1R)-1-[[2-(2-fluoro-N-prop-2-enoyl-anilino)acetyl]amino]-3-phenyl-propyl]boronic acid]"
,,,500 to 5000 nM,+++++ (Selectivity ≥ 150),< 50 nM,"C=CC(=O)N(CC(=O)N[C@@H](Cc1ccsc1)B(O)O)c1ccc(C(=O)N(C)C)cc1 [Compound No. 103, [(1R)-1-[[2-[4-(dimethylcarbamoyl)-N-prop-2-enoyl-anilino]acetyl]amino]-2-(3-thienyl)ethyl]boronic Acid]"
,,,> 5000 nM,+++++ (Selectivity ≥ 150),50 to 500 nM,"C=CC(=O)N(CC)CC(=O)N[C@@H](Cc1ccc(Cl)cc1Cl)B(O)O [Compound No. 40, [(1R)-2-(2,4-dichlorophenyl)-1-[[2-[ethyl(prop-2-enoyl)amino]acetyl]amino]ethyl]boronic Acid]"
,,,> 5000 nM,+++++ (Selectivity ≥ 150),< 50 nM,"C=CC(=O)N(C)CC(=O)N[C@@H](Cc1ccc(C(F)(F)F)cc1C)B(O)O [Compound No. 67, [(1R)-1-[[2-[methyl(prop-2-enoyl)amino]acetyl]amino]-2-[2-methyl-4-(trifluoromethyl)phenyl]ethyl]boronic Acid]"
500 to 5000 nM,++++ (100 ≤ Selectivity < 150),< 50 nM,,,,"C=CC(=O)N(CC)CC(=O)N[C@@H](Cc1ccc(C)cc1)B(O)O [Compound No. 31, [(1R)-1-[[2-[ethyl(prop-2-enoyl)amino]acetyl]amino]-2-(p-tolyl)ethyl]-boronic Acid]"
,,,> 5000 nM,++++ (100 ≤ Selectivity < 150),50 to 500 nM,"C=CC(=O)N1CCCC[C@@H]1C(=O)N[C@@H](Cc1ccc(C)cc1C)B(O)O [Compound No. 38, [(1R)-2-(2,4-dimethylphenyl)-1-[[(2R)-1-prop-2-enoylpiperidine-2-carbonyl]amino]ethyl]boronic Acid]"
> 5000 nM,+++++ (Selectivity ≥ 150),< 50 nM,,,,"C=CC(=O)N(CC(=O)N[C@@H](Cc1ccc(C)cc1C)B(O)O)c1ccccc1Cl [Compound No. 87, [(1R)-1-[[2-(2-chloro-N-prop-2-enoyl-anilino)acetyl]amino]-2-(2,4-dimethylphenyl)ethyl]boronic Acid]"
